Structures can show the parent of a compound that is named as a salt.

This is an account of results in US20260207699A1, “PHARMACEUTICAL COMPOSITION OF KAPPA OPIOID RECEPTOR AGONIST, PREPARATION METHOD THEREFOR, AND USE THEREOF” (YICHANG HUMANWELL PHARMACEUTICAL CO., LTD., priority 2022, published 2026).

Series [1] in a line: Stability of salts of compound of formula (II), high temperature test (40° C.). Particulars: for stability at high temperature of 40° C. and under light of 4500 Lux: up to 30 days. In kind it is physicochemical. Here is the method: (§1) Samples of acetate salt, citrate salt, and phosphate salt of the compound of formula (II) were placed for investigation respectively, and the investigation conditions were high temperature test (40° C.) and light (4500 Lux). The investigation period was 5 days, 10 days and 30 days.

The nature of series [2]: Stability of salts of compound of formula (II), light (4500 Lux). In kind it is physicochemical. Here is the method: as §1
The test system of series [3] is chloroquine-induced pruritus. The series can be described thus: Chloroquine-induced pruritus model of ICR mice. The class given is in vivo. Particulars: 3 mg/kg subcutaneously. Here is the method:
(§2) Test sample: Prescription 5 of Example 9 of the present application was used as the test sample.
ICR mice, SPF grade, male, weighing 30 g-40 g, raised in a constant temperature environment, temperature (20±2) ° C., humidity 40%-70%; the raising environment was with a light rhythm 12 h:12 h (6:00-18:00), free feeding and water, and adaptive feeding for 1 week.
The mice were shaved on the back of the neck. After shaving, the animals were weighed, and the mice were randomly divided into 5 groups of 10 animals per group according to their body weight, which were the vehicle control group; ICI204448 (CAS No.: 121264-04-8, positive control drug) control group (3 mg/kg); Test group 1 (0.1 mg/kg); Test group 2 (0.5 mg/kg); and Test group 3 (1.5 mg/kg). After the corresponding drugs were administered subcutaneously according to groups, 400 μg of chloroquine, a pruritus model inducer, was intradermally injected into the shaved area of the back of the neck of mice. Following intradermal injection of chloroquine, mice were individually placed in transparent plexiglass boxes and the number of scratches over 30 min was counted.

In series [4] the test system is mechanical allodynia. The series can be described thus: Rat postoperative analgesic model, mechanical allodynia (paw withdrawal threshold). In kind it is in vivo, Sprague-Dawley rats. As to conditions: 3 mg/kg. The method, then: as §2
Sprague-Dawley rats, SPF grade, male, weighing 200 g-220 g, raised in a constant temperature environment, temperature (20±2) ° C., humidity 40%-70%; the raising environment was with a light rhythm 12 h:12 h (6:00-18:00), free feeding and water, and adaptive feeding for 1 week.
Animals were anesthetized with Zoletil (6 mg/kg)+xylazine ([…], i.p.). The toes of the animals were squeezed to confirm that the animals were fully anesthetized prior to surgery. The skin of the surgical area on the plantar site of the left hind foot was disinfected three times using iodophor and 70% ethanol. Wait until the skin was dry, to start the surgery. An incision about 1 cm long was made longitudinally toward the toe from the heel position. After incising the skin, the flexor digitorum brevis was lifted and a longitudinal blunt injury was caused. After pressing to stop bleeding, the wound was sutured. After surgery, the animals were placed on electric blankets, and returned to the cage when the animals were fully awake (free to move).
Twenty-four hours after surgery, the baseline test of mechanical allodynia was performed on rats. […] At the same time, 10 rats of the same batch were taken as the control of the normal group. Mechanical allodynia tests were performed at 0.5 h, 1 h, and 1.5 h after administration, respectively.
The rats were individually placed in a plexiglass box with a grid at the bottom to ensure that the rat feet could be tested. Rats would acclimatize for 15 minutes prior to the test. After completion of the acclimatizing, test fiber (Touch-Test Sensory Evaluator) was used to test at the central plantar site of the left hind foot of the rats. In the test, the test fiber was pressed vertically against the skin and force was applied to bend the fiber for 6-8 seconds, with 5 seconds apart between each test. In the test, an animal's rapid withdrawal of the foot was noted as a pain response.

The nature of series [5]: Conventional injection, sterilization according to conventional requirements. The class given is physicochemical. As to conditions: prepared into a conventional injection. Here is the method:
After the cooled pharmaceutical solution is centrifuged at 3000 rpm to 10000 rpm, the precipitate is collected and detected by mass spectrometry (mass spectrometry conditions: chromatographic column: ACQUITY UPLC BEH C8, 50 mm×2.1 mm, 1.7 μm (20180306-C8-08); mobile phase A: 0.1% formic acid/water; mobile phase B: 0.1% formic acid/acetonitrile; flow rate: 0.2 ml/min; column temperature: 30° C.; detector wavelength: UV-210 nm; QDa; cone voltage: positive scan 10 volts, negative scan 5 volts; capillary voltage: plus 1.5 kV, minus 0.5 kV). Based on the detected MS values, it is speculated that the white flocculent precipitate is a degradation impurity as shown in the following formula: […]

`CC(C)C[C@@H](NC(=O)[C@@H](Cc1ccccc1)NC(=O)[C@H](N)[C@H](C)c1ccccc1)C(=O)N[C@H](CCCCN)C(=O)N1CCC(N)(C(=O)O)C1` (stereo partly drawn) [Acetate salt (1:1)]: the “HPLC purity (%)” value in series [1] (0 days) amounted to 97.9%; in series [1] (40° C., 5 days), 97.7%; in series [1] (40° C., 10 days) it was 97.5%; in series [1] (40° C., 30 days), 97.1%; in series [2] (5 days), 97.9%; in series [2] (10 days), 97.8%. Further, the “HPLC purity (%)” value in series [2] (30 days) was found to be 97.6%. For the same compound, the “stability at high temperature of 40° C. and under light of 4500 Lux” value (“stability at high temperature” below) in series [1] is “better stability”.
Take `CC(C)C[C@@H](NC(=O)[C@@H](Cc1ccccc1)NC(=O)[C@H](N)[C@H](C)c1ccccc1)C(=O)N[C@H](CCCCN)C(=O)N1CCC(N)(C(=O)O)C1` (stereo partly drawn) [Citrate salt (1:1)]: the “HPLC purity (%)” value in series [1] (0 days) came to 96.8%; in series [1] (40° C., 5 days), 95.7%; in series [1] (40° C., 10 days) it was 94.6%; in series [1] (40° C., 30 days) it was 93.5%; in series [2] (5 days) it was 96.2%; in series [2] (10 days) it was 95.5%. Besides, the “HPLC purity (%)” value in series [2] (30 days) is reported as 94.7%. The “stability at high temperature” value in series [1] is on record as “degraded in different degrees”.
Consider `CN(C(=O)Cc1ccc(Cl)c(Cl)c1)C(CN1CCCC1)c1cccc(OCC(=O)O)c1` (stereo not drawn) [ICI204448], for which, in series [3] (scratches over 30 min), the Inhibition rate stood at 97.4%. In series [3] (scratches over 30 min after 400 μg chloroquine intradermal), the “Number of scratches (mean ± standard error)” value is recorded as 7.3 ± 2.43.
As for `CN1CC[C@]23c4c5ccc(O)c4O[C@H]2[C@@H](O)C=C[C@H]3[C@H]1C5` [Morphine, morphine], the Pain inhibition rate in series [4] (0.5 hours after administration) is 122.5%; in series [4] (1 hours after administration) it was 84.2%; in series [4] (1.5 hours after administration) it was 27.9%.
Turning to `CC(C)C[C@@H](NC(=O)[C@@H](Cc1ccccc1)NC(=O)[C@H](N)[C@H](C)c1ccccc1)C(=O)N[C@H](CCCCN)C(=O)N1CCC(N)(C(=O)O)C1` (stereo partly drawn) [Phosphate salt (1:1)], the “HPLC purity (%)” value in series [1] (0 days) came out at 96.5%; in series [1] (40° C., 5 days), 95.6%; in series [1] (40° C., 10 days), 94.3%; in series [1] (40° C., 30 days) it was 92.3%; in series [2] (5 days) it was 96.2%; in series [2] (10 days), 95.1%. For the same compound, the “HPLC purity (%)” value in series [2] (30 days) is recorded as 94.2%. The “stability at high temperature” value in series [1] was “degraded in different degrees”.
`CC(C)C[C@@H](NC(=O)[C@@H](Cc1ccccc1)NC(=O)[C@H](N)[C@H](C)c1ccccc1)C(=O)N[C@H](CCCCN)C(=O)N1CCC(N)(C(=O)O)C1` (stereo partly drawn) [compound (II)]: the “appearance after sterilization when cooled to room temperature” value in series [5] is listed as “a flocculent precipitate is separated out”.
